Results taken from ChEMBL document CHEMBL4507268 (2021).

Tests used:
Details in all cases: Compound concentration 1000.0 nM
[1] = tested on: Phosphatidylinositol 4,5-bisphosphate 3-kinase catalytic subunit alpha isoform (Homo sapiens), P42336 [M1043I]
[2] = tested on: Leucine-rich repeat serine/threonine-protein kinase 2 (Homo sapiens), Q5S007 [G2019S]
[3] = molecular target: Serine/threonine-protein kinase 38-like (Homo sapiens) (UniProt Q9Y2H1)
[4] = molecular target: 5'-AMP-activated protein kinase catalytic subunit alpha-1 (Homo sapiens) (UniProt Q13131)
[5] = tested on: Phosphatidylinositol 4,5-bisphosphate 3-kinase catalytic subunit alpha isoform (Homo sapiens), P42336 [E545A]
[6] = molecular target: Serine/threonine-protein kinase SIK2 (Homo sapiens) (UniProt Q9H0K1)
[7] = molecular target: T1, Serine/threonine-protein kinase 17B (Homo sapiens) (UniProt O94768)
T1 sequence (whole entry): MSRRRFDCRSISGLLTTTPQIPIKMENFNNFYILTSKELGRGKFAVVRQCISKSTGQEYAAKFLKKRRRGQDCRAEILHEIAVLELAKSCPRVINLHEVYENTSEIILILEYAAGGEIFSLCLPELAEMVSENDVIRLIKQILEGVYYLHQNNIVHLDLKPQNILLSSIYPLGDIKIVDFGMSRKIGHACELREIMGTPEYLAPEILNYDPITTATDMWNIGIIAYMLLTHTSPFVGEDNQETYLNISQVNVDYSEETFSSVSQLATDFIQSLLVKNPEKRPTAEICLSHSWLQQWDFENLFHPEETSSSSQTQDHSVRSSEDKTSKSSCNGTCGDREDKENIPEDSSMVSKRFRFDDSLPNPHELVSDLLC

[8] = molecular target: Serine/threonine-protein kinase OSR1 (Homo sapiens) (UniProt O95747)
[9] = molecular target: Vascular endothelial growth factor receptor 1 (Homo sapiens) (UniProt P17948)
[10] = molecular target: 1-phosphatidylinositol 3-phosphate 5-kinase (Homo sapiens) (UniProt Q9Y2I7)
[11] = molecular target: T2, SNF-related serine/threonine-protein kinase (Homo sapiens) (UniProt Q9NRH2)
T2 sequence (whole entry): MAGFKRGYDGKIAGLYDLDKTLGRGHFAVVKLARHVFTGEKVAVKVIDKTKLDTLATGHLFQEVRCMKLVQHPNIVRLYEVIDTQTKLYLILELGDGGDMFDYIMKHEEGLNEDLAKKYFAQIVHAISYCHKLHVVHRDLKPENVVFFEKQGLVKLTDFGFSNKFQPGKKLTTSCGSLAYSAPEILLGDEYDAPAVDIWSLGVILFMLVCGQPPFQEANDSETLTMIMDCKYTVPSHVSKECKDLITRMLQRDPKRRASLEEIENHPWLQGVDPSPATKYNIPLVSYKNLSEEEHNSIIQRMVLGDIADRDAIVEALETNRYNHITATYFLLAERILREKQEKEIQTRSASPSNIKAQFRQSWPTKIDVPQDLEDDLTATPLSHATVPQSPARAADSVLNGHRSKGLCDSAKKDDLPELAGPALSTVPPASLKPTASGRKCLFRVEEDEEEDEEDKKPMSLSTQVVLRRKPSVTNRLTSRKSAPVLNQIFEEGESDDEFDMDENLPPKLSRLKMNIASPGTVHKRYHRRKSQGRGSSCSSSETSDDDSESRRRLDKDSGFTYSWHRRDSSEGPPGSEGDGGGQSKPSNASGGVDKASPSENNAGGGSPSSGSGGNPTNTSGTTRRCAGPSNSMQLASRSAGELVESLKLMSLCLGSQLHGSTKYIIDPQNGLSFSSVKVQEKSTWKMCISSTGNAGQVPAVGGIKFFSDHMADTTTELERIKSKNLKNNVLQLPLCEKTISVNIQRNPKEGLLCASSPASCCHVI

[12] = molecular target: Serine/threonine-protein kinase 10 (Homo sapiens) (UniProt O94804)
[13] = molecular target: Tyrosine-protein kinase JAK1 (Homo sapiens) (UniProt P23458)
[14] = molecular target: Tyrosine-protein kinase Fyn (Homo sapiens) (UniProt P06241)
[15] = molecular target: Mitogen-activated protein kinase kinase kinase kinase 4 (Homo sapiens) (UniProt O95819)
[16] = molecular target: Glycogen synthase kinase-3 beta (Homo sapiens) (UniProt P49841)
[17] = molecular target: Serine/threonine-protein kinase N2 (Homo sapiens) (UniProt Q16513)
[18] = molecular target: Casein kinase I isoform alpha (Homo sapiens) (UniProt P48729)
[19] = molecular target: Cyclin-dependent kinase 7 (Homo sapiens) (UniProt P50613)
[20] = molecular target: T3, Tyrosine-protein kinase TXK (Homo sapiens) (UniProt P42681)
T3 sequence (whole entry): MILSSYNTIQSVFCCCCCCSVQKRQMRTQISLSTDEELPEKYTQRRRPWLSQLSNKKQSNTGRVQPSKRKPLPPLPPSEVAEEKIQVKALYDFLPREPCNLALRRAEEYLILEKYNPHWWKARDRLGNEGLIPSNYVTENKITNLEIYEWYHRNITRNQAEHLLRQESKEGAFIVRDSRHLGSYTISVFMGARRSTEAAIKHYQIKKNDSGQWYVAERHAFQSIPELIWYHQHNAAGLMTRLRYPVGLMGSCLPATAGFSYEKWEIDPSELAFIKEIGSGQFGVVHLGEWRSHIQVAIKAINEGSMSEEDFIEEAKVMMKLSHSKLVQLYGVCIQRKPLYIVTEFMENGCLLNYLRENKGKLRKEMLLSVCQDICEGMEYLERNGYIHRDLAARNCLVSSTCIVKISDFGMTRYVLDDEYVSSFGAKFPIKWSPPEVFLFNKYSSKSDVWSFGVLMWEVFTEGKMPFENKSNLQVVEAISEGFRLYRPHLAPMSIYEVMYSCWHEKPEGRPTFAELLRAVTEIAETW

[21] = molecular target: Bone morphogenetic protein receptor type-1B (Homo sapiens) (UniProt O00238)

Leucine-rich repeat serine/threonine-protein kinase 2 (Homo sapiens), Q5S007 [G2019S], sequence (Q5S007 whole entry G2019S): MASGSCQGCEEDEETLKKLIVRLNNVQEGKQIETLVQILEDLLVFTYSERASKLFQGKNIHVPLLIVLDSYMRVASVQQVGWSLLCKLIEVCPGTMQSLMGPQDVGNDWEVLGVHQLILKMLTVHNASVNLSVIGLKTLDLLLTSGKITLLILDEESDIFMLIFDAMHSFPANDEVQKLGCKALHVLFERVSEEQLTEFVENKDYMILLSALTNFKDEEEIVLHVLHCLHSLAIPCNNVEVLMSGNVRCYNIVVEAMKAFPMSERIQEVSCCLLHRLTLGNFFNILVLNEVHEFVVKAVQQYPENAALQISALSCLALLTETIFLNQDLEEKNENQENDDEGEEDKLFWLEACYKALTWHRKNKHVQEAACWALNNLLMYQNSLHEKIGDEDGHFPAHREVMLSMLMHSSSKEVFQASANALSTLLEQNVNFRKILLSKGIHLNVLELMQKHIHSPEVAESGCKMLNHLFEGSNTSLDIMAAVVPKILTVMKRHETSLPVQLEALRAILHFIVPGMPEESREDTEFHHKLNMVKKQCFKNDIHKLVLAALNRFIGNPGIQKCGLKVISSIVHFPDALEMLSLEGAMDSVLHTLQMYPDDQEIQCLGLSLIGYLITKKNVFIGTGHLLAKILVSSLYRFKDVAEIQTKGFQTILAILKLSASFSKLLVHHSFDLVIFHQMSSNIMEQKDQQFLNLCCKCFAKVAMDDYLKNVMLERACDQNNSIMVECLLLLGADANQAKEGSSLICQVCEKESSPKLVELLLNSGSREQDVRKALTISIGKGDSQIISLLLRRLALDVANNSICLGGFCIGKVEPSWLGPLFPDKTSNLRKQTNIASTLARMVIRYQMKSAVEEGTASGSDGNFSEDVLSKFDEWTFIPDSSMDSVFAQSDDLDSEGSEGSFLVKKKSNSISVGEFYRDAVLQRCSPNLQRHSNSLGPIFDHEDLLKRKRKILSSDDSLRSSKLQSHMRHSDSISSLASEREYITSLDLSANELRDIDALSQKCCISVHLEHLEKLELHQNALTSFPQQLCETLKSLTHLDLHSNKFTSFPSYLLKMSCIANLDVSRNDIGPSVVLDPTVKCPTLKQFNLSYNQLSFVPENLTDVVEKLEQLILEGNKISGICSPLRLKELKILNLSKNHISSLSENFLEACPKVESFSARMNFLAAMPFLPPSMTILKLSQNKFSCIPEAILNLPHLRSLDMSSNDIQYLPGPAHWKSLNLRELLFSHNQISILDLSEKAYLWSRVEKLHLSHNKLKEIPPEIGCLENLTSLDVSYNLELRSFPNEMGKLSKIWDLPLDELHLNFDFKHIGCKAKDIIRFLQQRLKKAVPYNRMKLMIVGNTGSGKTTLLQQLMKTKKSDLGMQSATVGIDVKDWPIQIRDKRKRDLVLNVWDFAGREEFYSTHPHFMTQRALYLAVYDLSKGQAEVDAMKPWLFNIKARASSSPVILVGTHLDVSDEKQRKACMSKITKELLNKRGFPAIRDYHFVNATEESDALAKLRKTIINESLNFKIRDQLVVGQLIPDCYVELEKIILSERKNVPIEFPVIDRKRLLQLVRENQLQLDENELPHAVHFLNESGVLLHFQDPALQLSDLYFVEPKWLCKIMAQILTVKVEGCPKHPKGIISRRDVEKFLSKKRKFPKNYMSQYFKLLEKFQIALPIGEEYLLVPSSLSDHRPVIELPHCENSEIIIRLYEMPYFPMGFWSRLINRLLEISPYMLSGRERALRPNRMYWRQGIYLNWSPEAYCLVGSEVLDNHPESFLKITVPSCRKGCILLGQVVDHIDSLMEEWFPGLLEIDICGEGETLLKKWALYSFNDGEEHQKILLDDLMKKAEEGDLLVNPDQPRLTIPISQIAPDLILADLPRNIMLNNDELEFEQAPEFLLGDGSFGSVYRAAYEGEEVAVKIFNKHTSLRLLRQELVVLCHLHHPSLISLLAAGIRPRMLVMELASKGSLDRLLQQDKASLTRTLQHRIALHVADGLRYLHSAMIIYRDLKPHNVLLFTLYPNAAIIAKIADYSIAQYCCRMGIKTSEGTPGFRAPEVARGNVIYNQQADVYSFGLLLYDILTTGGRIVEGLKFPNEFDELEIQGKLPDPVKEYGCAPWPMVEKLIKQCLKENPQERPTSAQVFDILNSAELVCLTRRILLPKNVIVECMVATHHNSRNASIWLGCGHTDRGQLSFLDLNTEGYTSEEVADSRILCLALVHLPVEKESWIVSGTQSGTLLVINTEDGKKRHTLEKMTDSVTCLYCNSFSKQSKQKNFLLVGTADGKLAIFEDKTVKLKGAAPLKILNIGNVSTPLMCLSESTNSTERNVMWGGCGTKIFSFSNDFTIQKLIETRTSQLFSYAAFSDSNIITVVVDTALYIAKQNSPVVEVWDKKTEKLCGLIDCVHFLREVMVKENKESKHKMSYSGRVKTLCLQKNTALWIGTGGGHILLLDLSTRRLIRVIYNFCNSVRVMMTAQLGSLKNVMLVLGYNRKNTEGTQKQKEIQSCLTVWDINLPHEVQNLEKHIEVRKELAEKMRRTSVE
Serine/threonine-protein kinase N2 (Homo sapiens), sequence (Q16513 whole entry, looked up, canonical isoform): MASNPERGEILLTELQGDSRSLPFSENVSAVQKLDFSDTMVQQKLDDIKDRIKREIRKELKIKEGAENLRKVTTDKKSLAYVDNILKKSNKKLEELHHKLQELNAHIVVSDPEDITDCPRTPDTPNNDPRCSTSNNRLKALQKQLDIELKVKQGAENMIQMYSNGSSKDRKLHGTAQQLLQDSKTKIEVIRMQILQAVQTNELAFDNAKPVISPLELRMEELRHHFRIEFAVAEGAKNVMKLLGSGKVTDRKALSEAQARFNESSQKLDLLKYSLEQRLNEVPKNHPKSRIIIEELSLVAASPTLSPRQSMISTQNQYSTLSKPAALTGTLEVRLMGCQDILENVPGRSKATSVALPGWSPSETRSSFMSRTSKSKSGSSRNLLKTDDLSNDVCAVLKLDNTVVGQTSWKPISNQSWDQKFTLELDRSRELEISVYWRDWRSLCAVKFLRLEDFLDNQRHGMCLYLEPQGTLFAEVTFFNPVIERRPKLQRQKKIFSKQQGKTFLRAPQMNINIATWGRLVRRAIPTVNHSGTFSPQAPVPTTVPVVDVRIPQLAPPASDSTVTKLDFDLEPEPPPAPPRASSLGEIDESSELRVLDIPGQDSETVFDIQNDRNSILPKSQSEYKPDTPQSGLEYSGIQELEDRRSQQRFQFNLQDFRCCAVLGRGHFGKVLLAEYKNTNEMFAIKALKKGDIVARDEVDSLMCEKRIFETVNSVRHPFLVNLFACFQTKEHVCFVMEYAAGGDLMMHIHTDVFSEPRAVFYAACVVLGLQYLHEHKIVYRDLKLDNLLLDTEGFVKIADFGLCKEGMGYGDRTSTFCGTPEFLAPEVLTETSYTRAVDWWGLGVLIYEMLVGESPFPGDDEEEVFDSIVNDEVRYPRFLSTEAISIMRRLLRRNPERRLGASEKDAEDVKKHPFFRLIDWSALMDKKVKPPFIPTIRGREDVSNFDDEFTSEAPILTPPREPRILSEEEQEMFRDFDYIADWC
Casein kinase I isoform alpha (Homo sapiens), sequence (P48729 2-337 limits assumed): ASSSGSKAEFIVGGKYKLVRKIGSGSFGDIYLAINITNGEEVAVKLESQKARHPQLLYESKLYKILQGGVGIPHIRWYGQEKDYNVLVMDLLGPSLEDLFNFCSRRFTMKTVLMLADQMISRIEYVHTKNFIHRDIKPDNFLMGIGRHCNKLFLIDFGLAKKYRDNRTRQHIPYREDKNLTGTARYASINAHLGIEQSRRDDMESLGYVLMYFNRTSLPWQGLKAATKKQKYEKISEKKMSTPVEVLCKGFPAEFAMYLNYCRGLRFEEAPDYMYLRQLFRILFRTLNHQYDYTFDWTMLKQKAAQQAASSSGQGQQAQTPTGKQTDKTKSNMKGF
Serine/threonine-protein kinase 38-like (Homo sapiens), sequence (Q9Y2H1 2-464 limits assumed): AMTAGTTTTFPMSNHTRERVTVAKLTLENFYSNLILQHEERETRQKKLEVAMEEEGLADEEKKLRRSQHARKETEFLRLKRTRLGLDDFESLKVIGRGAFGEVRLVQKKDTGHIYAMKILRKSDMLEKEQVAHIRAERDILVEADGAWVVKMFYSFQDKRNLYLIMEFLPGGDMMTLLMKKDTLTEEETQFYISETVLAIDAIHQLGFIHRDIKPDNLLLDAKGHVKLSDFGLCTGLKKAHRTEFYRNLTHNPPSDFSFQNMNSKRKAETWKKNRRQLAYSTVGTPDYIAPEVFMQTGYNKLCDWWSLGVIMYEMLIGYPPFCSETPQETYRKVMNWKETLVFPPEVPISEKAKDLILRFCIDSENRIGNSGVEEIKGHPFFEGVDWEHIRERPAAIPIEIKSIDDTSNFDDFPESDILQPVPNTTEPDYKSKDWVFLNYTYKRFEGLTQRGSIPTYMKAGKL
Serine/threonine-protein kinase OSR1 (Homo sapiens), sequence (O95747 2-527 limits assumed): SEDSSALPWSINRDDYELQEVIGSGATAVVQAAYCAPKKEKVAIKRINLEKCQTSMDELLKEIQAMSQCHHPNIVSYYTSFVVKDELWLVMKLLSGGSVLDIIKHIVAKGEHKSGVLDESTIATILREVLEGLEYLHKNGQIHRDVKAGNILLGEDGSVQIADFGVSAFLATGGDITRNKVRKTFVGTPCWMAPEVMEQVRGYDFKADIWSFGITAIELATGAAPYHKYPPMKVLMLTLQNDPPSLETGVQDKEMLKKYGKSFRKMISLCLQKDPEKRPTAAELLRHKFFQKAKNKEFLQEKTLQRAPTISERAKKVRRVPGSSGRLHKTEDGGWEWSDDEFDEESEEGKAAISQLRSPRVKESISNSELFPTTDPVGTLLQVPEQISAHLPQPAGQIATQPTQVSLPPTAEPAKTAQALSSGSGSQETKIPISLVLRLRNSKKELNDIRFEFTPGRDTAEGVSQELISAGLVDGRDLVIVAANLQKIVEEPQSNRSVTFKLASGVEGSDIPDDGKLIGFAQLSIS

| Structure (SMILES) | residual activity [1] | residual activity [2] | residual activity [3] | residual activity [4] | residual activity [5] | residual activity [6] | residual activity [7] | residual activity [8] | residual activity [9] | residual activity [10] | residual activity [11] | residual activity [12] | residual activity [13] | residual activity [14] | residual activity [15] | residual activity [16] | residual activity [17] | residual activity [18] | residual activity [19] | residual activity [20] | further results |
| --- | --- | --- | --- | --- | --- | --- | --- | --- | --- | --- | --- | --- | --- | --- | --- | --- | --- | --- | --- | --- | --- |
| CN1CCN(c2cnc3c(C4CCN(C(=O)c5ccc(OC(F)(F)F)cc5N)CC4)ncnc3c2)CC1 [BAY-885] | 100% | 100% | 100% | 87% | 89% | 100% | 86% | 100% | 76% | 98% | 87% | 52% | 90% | 100% | 100% | 100% | 100% | 91% | 89% | 88% | residual activity [21]: 100% |
| Cc1nc(C2CCN(C(=O)c3ccc(OC(F)(F)F)cc3N)CC2)c2ncc(N3CCN(C)CC3)cc2n1 [BAY-693] | 96% | 100% | 100% | 98% | 79% | 100% | 99% | 49% | 88% | 100% | 78% | 96% | 90% | 96% | 100% | 100% | 100% | 100% | 100% | 100% | residual activity [21]: 93% |
